Experimental data: patent publication US20260356803A1, “Nicotinamide derivatives” (Board of Regents, The University of Texas System, priority 2024, published 2026)

The molecules below were run on human MPNST cell line S462 (assay: S462 cell viability (CellTiter-Glo, 72 h)). Conditions: [nicotinamide] 0 μM, Nam-free DMEM; read-out: IC50 (μM), [nicotinamide] 0 μM.
Format: cell-based
Description: This similarity, in addition to the scaffold's particular sensitivity to modifications around the pyridinyl ring led us to hypothesize that the activity of compounds 1 and 9 may depend on the concentration of Nam in the media. To test this hypothesis, we analyzed the activity of both compounds in media supplemented with increasing concentrations of Nam. […] Given that Nam inhibited compound activity, we considered Nam concentrations in basal culture conditions (DMEM supplemented with 10% fetal bovine serum or FBS) as compared to physiological levels. Nam levels in human serum are estimated to be in the 4 μM range.^5 In contrast, DMEM alone contains […] of Nam and the concentration in 10% FBS is expected to range between 0.574-1.56 μM.^6 To more closely reflect physiologic levels of Nam, we evaluated the activity of these compounds in cells grown in DMEM lacking Nam (Nam-free DMEM), so that the only exogenous Nam derives from 10% FBS. […] These observations indicate that the potency of these compounds is in the nanomolar range when tested in the presence of physiological levels of Nam.
We thus re-assessed the structure activity relationship of compound 21 analogs in Nam-free DMEM supplemented with or without 100 μM Nam (see appendix below: Synthesis, characterization and activity of micromolar and nanomolar active nicotinamide derivatives). […] Particularly notable, even in Nam-depleted conditions, all active analogs retained the same 3-pyridinyl ring as Nam, reinforcing the relationship between structural resemblance to Nam and compound efficacy.
In 96-well assay plates (Corning #2903), 2,000 cells were plated per well in 100 μL of medium and allowed to adhere overnight. The next day, compounds or Nam suspended in DMSO were dispensed to the assayed wells using a D300e Digital Dispenser (Tecan). All wells were normalized to 0.5% DMSO. 72 hours after incubation at 37 °C in 5% CO2, cell viability was assayed using an ATP-based luminescent viability assay, CellTiter-Glo (Promega #G8462). CellTiter-Glo substrate was mixed 1:1 with phosphate-buffered saline (PBS) supplemented with 1% Triton X-100, and 40 μL of this mixture was added to the assay wells. After the plates were shaken on a microplate shaker for 10 minutes at room temperature, luminescence was recorded using a Synergy 2 Microplate Reader or Cytation 5 plate reader (BioTek). In Prism 9 software (GraphPad), ten-point dose response curves were plotted with baseline-correction to the vehicle control well, and IC50 values were calculated by curve fitting using asymmetric (five parameter), least squares fit.
In the case of `Cc1ccc(C(=O)Nc2cccnc2)s1`, the IC50 is reported as 0.184 µM.
Work on `O=C(Nc1cccnc1)c1cc2c(s1)CCCC2` yielded an IC50 of 0.763 µM.
`COc1cccc(C(=O)Nc2cccnc2)c1` gave an IC50 of 2.36 µM.
In the case of `Cc1ccccc1C(=O)Nc1cccnc1`, the IC50 is reported as 14.7 µM.
For `O=C(Nc1cnc(Cl)c(Cl)c1)c1cccs1`, the IC50 was 8.76 µM.
`O=C(Nc1ccon1)c1cccnc1` was tested, and the IC50 was 2.73 µM.
`O=C(Nc1ccc(Br)nc1)c1cccs1` showed an IC50 of 8.5 µM.
Work on `O=C(Nc1ccccc1)c1cccnc1` yielded an IC50 of 0.024 µM.
In the case of `N#Cc1ccc(NC(=O)c2cccs2)cn1`, the IC50 is reported as 2.78 µM.
For `O=C(Nc1cc(-c2ccccc2)cs1)c1cccnc1`, the IC50 was 2.46 µM.
With `CCOC(=O)c1ccc(NC(=O)c2cccnc2)s1` the IC50 was 0.23 µM.
`N#Cc1c(NC(=O)c2cccnc2)sc2c1CCC2` was tested, and the IC50 was 5.97 µM.
Work on `Cc1cccc(C(=O)Nc2cccnc2)c1` yielded an IC50 of 35.7 µM.
`N#Cc1c(NC(=O)c2cccnc2)sc2c1CCCC2` gave an IC50 of 4.74 µM.
For `O=C(Nc1nc2cccnc2s1)c1cccnc1`, the IC50 was 23.9 µM.
`O=C(Nc1cccs1)c1cccnc1` [drawing 72] was tested, and the IC50 was 0.006 µM.
For `O=C(Nc1nc2ccccc2s1)c1cccnc1` [drawing 105], the IC50 was 0.623 µM.
`O=C(Nc1nc2ccccc2s1)c1cccnc1` [drawing 111] showed an IC50 of 36.2 µM.

Same assay, conditions: [nicotinamide] 33 μM; read-out: IC50 (μM), [nicotinamide] 33 μM
Work on `Cc1ncsc1C(=O)Nc1cccnc1` yielded an IC50 of over 50 µM.
Molecule `Cc1ccc(C(=O)Nc2cccnc2)s1` has an IC50 of over 50 µM.
`O=C(Nc1cccnc1)c1cc2c(s1)CCCC2` showed an IC50 of over 50 µM.
`COc1cccc(C(=O)Nc2cccnc2)c1` was tested, and the IC50 was over 50 µM.
In the case of `O=C(Nc1cncc(F)c1)c1cccs1`, the IC50 is reported as over 50 µM.
In the case of `Cc1ccccc1C(=O)Nc1cccnc1`, the IC50 is reported as over 50 µM.
`N#Cc1cncc(NC(=O)c2cccs2)c1` showed an IC50 of over 50 µM.
In the case of `O=C(Nc1cnc(Cl)c(Cl)c1)c1cccs1`, the IC50 is reported as over 50 µM.
Molecule `O=C(Nc1ccon1)c1cccnc1` has an IC50 of over 50 µM.
Molecule `O=C(Nc1ccc(Br)nc1)c1cccs1` has an IC50 of over 50 µM.
For `O=C(Nc1ccccc1)c1cccnc1`, the IC50 was 13.1 µM.
For `N#Cc1ccc(NC(=O)c2cccs2)cn1`, the IC50 was over 50 µM.
In the case of `CCOC(=O)c1ccsc1NC(=O)c1cccnc1`, the IC50 is reported as over 50 µM.
For `Cc1cccc(C(=O)Nc2cccnc2)c1`, the IC50 was over 50 µM.
For `O=C(Nc1nc2cccnc2s1)c1cccnc1`, the IC50 was over 50 µM.
`O=C(Nc1cccs1)c1cccnc1` [drawing 72] showed an IC50 of 1.2 µM.
Work on `O=C(Nc1nc2ccccc2s1)c1cccnc1` [drawing 111] yielded an IC50 of over 50 µM.

Same assay, conditions: [nicotinamide] 100 μM; read-out: IC50 (μM), [nicotinamide] 100 μM
Molecule `Cc1ncsc1C(=O)Nc1cccnc1` has an IC50 of over 50 µM.
Molecule `Cc1ccc(C(=O)Nc2cccnc2)s1` has an IC50 of over 50 µM.
In the case of `O=C(Nc1cccnc1)c1cc2c(s1)CCCC2`, the IC50 is reported as over 50 µM.
`COc1cccc(C(=O)Nc2cccnc2)c1` showed an IC50 of over 50 µM.
With `O=C(Nc1cncc(F)c1)c1cccs1` the IC50 was over 50 µM.
Molecule `Cc1ccccc1C(=O)Nc1cccnc1` has an IC50 of over 50 µM.
In the case of `N#Cc1cncc(NC(=O)c2cccs2)c1`, the IC50 is reported as over 50 µM.
In the case of `O=C(Nc1cnc(Cl)c(Cl)c1)c1cccs1`, the IC50 is reported as 42.4 µM.
Work on `O=C(Nc1ccon1)c1cccnc1` yielded an IC50 of over 50 µM.
`O=C(Nc1ccc(Br)nc1)c1cccs1` showed an IC50 of over 50 µM.
`O=C(Nc1ccccc1)c1cccnc1` showed an IC50 of over 50 µM.
In the case of `N#Cc1ccc(NC(=O)c2cccs2)cn1`, the IC50 is reported as over 50 µM.
Work on `CCOC(=O)c1ccsc1NC(=O)c1cccnc1` yielded an IC50 of over 50 µM.
For `O=C(Nc1cc(-c2ccccc2)cs1)c1cccnc1`, the IC50 was 39.6 µM.
`Cc1sc(NC(=O)c2cccnc2)c(C#N)c1C` gave an IC50 of over 50 µM.
Work on `CCOC(=O)c1ccc(NC(=O)c2cccnc2)s1` yielded an IC50 of over 50 µM.
For `Cc1cc(C#N)c(NC(=O)c2cccnc2)s1`, the IC50 was over 50 µM.
For `N#Cc1c(NC(=O)c2cccnc2)sc2c1CCC2`, the IC50 was 6.1 µM.
`Cc1cccc(C(=O)Nc2cccnc2)c1` gave an IC50 of over 50 µM.
Work on `N#Cc1c(NC(=O)c2cccnc2)sc2c1CCCC2` yielded an IC50 of 4.72 µM.
`O=C(Nc1nc2cccnc2s1)c1cccnc1` showed an IC50 of over 50 µM.
With `O=C(Nc1cccs1)c1cccnc1` [drawing 72] the IC50 was over 50 µM.
`O=C(Nc1nc2ccccc2s1)c1cccnc1` [drawing 105] showed an IC50 of over 50 µM.
For `O=C(Nc1nc2ccccc2s1)c1cccnc1` [drawing 111], the IC50 was over 50 µM.

These molecules were tested on iHCT116 cells (assay: Forward genetics resistance selection (IAA-inducible mutagenesis)). Conditions: IAA treated (Mut-on).
Format: cell-based
Description: Second, we screened for resistance to 9 in iHCT116 cells, a system that uses inducible mutagenesis and forward genetics to find compound-resistant mutations and thus can reveal both loss of function and gain of function alleles that suppress activity. The iHCT116 system is a barcoded cell line in which we temporally control mutagenesis by the addition of indole acetic acid (IAA) mediated degradation of the mismatch repair protein MLH1.^12 MLN4924 is a small molecule toxin that we use as a positive control to verify that IAA treatment leads to increased mutations. By degrading MLH1 and increasing the overall mutation rate, IAA treatment increases the frequency of UBA3 mutations, leading to a higher rate of MLN4924 resistance. […] Having previously established a relationship between either NMNAT1 levels or NAMPT activity and compound resistance, we analyzed the levels of both enzymes in multiple resistant clones that harbored unique barcode sequences. […] To test whether reduced NMNAT1 levels in these clones contributed to resistance, we ectopically expressed NMNAT1 in either the parental cells or a representative resistant clone with low NMNAT1 expression.
Molecule `NS(=O)(=O)OC[C@@H]1C[C@@H](n2ccc3c(N[C@H]4CCc5ccccc54)ncnc32)C[C@@H]1O` [MLN4924, reference compound] has a resistant clones of 33 clones.

Same assay, conditions: vehicle (Mut-off)
In the case of `NS(=O)(=O)OC[C@@H]1C[C@@H](n2ccc3c(N[C@H]4CCc5ccccc54)ncnc32)C[C@@H]1O` [MLN4924, reference compound], the resistant clones is reported as “one”.
